{"source": "paper PMC3361698", "about": "(Chemistry & biology, 2012)", "key": {"[1]": {"target": "T1, EcPPCS (phosphopantothenoylcysteine synthetase) (Escherichia coli, UniProt P0ABQ0)", "T1 sequence (P0ABQ0 181-406)": "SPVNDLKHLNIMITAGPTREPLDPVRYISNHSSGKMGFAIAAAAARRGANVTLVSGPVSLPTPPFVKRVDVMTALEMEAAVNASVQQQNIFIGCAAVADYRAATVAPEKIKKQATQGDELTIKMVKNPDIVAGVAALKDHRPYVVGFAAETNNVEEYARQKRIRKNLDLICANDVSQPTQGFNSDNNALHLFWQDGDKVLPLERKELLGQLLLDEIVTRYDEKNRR", "assay": "CD melting temperature shift", "assay_type": "binding"}, "[2]": {"target": "T2, SaPanKII (pantothenate kinase, type II) (Staphylococcus aureus, UniProt Q8NVG0)", "T2 sequence (Q8NVG0 whole entry)": "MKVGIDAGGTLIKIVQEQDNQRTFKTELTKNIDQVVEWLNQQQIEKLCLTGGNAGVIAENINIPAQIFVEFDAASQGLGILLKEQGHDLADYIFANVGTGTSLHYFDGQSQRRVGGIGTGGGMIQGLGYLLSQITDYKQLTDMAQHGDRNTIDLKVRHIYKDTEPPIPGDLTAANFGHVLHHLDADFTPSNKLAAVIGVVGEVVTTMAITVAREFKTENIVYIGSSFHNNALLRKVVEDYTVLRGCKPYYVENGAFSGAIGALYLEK", "assay_type": "biochemical"}, "[3]": {"target": "T2, SaPanKII (pantothenate kinase, type II)", "assay": "coupled spectrophotometric kinase assay with purified enzyme", "assay_type": "biochemical"}, "[4]": {"target": "T1, EcPPCS (phosphopantothenoylcysteine synthetase)", "assay": "pyrophosphate release, HPLC/LCMS of cytidylylation", "assay_type": "biochemical"}, "[5]": {"target": "T1, EcPPCS (phosphopantothenoylcysteine synthetase)", "assay": "CD melting temperature shift", "assay_type": "binding", "remark": "listed apart in the source"}, "[6]": {"target": "T1, EcPPCS (phosphopantothenoylcysteine synthetase)", "assay": "progress curves with Morrison fit, inhibitor formed in situ from P-CJ and CTP", "assay_type": "biochemical"}, "[7]": {"target": "T3, SaCoaBC (bifunctional CoaBC protein, phosphopantothenoylcysteine synthetase) (Staphylococcus aureus, UniProt Q2G268)", "T3 sequence (Q2G268 1-399)": "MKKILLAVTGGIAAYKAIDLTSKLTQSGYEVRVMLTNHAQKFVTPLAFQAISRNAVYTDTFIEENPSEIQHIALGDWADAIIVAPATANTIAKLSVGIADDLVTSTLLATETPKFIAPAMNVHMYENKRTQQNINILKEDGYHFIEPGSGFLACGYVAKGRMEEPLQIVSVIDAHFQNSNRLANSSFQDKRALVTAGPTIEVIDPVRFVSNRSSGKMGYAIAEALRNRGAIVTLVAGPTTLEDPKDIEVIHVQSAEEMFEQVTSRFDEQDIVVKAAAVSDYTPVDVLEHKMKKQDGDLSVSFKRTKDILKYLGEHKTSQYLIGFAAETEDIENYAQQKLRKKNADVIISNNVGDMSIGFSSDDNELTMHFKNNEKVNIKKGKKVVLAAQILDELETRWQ", "assay": "progress curve inhibition analysis", "assay_type": "biochemical"}}, "data": [{"smiles": "Nc1ccn([C@@H]2O[C@H](COP(=O)(O)OP(=O)(O)OP(=O)(O)O)[C@@H](O)[C@H]2O)c(=O)n1", "note": "[CTP]", "values": [{"measurement": "CD melting temperature shift (47.7 to 49.7 °C)", "setting": "[1]", "value": "49.7 °C (Tm)"}]}, {"smiles": "CC(C)(CO)[C@@H](O)C(=O)N/C=C/C(=O)O", "note": "[compound 1, CJ-15,801]", "values": [{"measurement": "HPLC of phosphorylation and coupled spectrophotometric kinase assay with purifie", "setting": "[2]", "value": "13.8±4.2 mM^−1.s^−1 (kcat/Km)"}]}, {"smiles": "CC(C)(CO)[C@@H](O)C(=O)NCCC(=O)O", "note": "[compound 2, pantothenic acid]", "values": [{"measurement": "coupled spectrophotometric kinase assay with purified enzyme", "setting": "[3]", "value": "30.2±8.7 mM^−1.s^−1 (kcat/Km)"}]}, {"smiles": "CC(C)(COP(=O)(O)O)[C@@H](O)C(=O)N/C=C/C(=O)O", "note": "[compound 13, P-CJ]", "values": [{"measurement": "IC50", "setting": "[4]", "value": "2660 ± 160", "unit": "nM"}]}, {"smiles": "CC(C)(COP(=O)(O)O)[C@@H](O)C(=O)NCCC(=O)OP(=O)(O)OC[C@H]1O[C@@H](n2ccc(N)nc2=O)[C@H](O)[C@@H]1O", "note": "[compound 14, P-Pan-CMP]", "values": [{"measurement": "CD melting temperature shift (47.7 to 54.3 °C), formed in situ from P-Pan and CT", "setting": "[5]", "value": "54.3 °C (Tm)"}]}, {"smiles": "CC(C)(COP(=O)(O)O)[C@@H](O)C(=O)N/C=C/C(=O)OP(=O)(O)OC[C@H]1O[C@@H](n2ccc(N)nc2=O)[C@H](O)[C@@H]1O", "note": "[compound 16, P-CJ-CMP]", "values": [{"measurement": "Ki", "setting": "[6]", "value": 164, "unit": "nM"}, {"measurement": "Ki", "setting": "[7]", "value": 13, "unit": "nM"}]}]}
